Laboratory results from patent US4835190A, “Phenolic thioethers as inhbitors of 5-lipoxygenase” (G. D. Searle & Co., priority 1987, dated 1989).

Tests used:
5-lipoxygenase = biological target: T1, 5-lipoxygenase (Rattus norvegicus, UniProt P12527); assay: Inhibition of 5-lipoxygenase, in vitro (5-HETE synthesis, RBL-1 homogenate supernatant); type: biochemical; conditions: RBL-1 100,000×g supernatant, [1-14C]-arachidonic acid and Ca++, 5-HETE by TLC; initial screen 1×10^-4 M
T1 construct: supernatant fraction of Rat Basophilic Leukemia Cell Homogenate (RBL-1) serves as a 5-lipoxygenase enzyme source; endogenous in cells; host or cells: RBL-1 (rat basophilic leukemia) cells, 100,000×g supernatant of homogenate
T1 sequence (P12527 1-673): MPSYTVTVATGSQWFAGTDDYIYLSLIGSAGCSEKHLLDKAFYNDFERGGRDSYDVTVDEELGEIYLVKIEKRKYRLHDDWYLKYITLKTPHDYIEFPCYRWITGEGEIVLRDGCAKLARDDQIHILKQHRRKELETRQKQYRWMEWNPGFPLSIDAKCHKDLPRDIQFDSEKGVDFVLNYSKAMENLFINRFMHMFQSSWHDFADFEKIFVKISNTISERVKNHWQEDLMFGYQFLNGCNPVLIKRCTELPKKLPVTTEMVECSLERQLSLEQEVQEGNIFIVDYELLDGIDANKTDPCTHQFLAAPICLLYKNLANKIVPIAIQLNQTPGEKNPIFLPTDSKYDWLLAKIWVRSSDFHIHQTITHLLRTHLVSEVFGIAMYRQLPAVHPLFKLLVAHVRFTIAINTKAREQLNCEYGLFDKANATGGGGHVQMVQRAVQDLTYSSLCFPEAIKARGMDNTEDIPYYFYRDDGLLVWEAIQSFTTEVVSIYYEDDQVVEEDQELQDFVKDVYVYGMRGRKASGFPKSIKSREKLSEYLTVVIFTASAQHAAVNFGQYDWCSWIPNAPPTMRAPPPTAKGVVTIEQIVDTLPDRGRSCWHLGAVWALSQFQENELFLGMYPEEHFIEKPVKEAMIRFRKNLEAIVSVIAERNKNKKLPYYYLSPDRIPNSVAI
Experimental: The compounds of the invention are evaluated with respect to 5-lipoxygenaseinhibition according to the following assay procedure.
Inhibition of 5-lipoxygenase, in vitro: anti-inflammatory, anti-allergy activities. The 100,000×g supernatant fraction of Rat Basophilic Leukemia Cell Homogenate (RBL-1) serves as a 5-lipoxygenase enzyme source. The enzyme is incubated with [1-^14 C)-arachidonic acid and Ca++ in the presence and absence of test compound. The product of 5-lipoxygenase, 5-hydroxyeicosatetraenoic acid (5-HETE), is separated by thin-layer chromatography and measured by radioactivity. A compound inhibiting 5-HETE synthesis by 30% or more is considered active at that concentration.

[1] = versus histamine; cited from earlier work

| Compound | IC50 (5-lipoxygenase) [µM] | further results |
| --- | --- | --- |
| CC(C)Sc1cc(C(C)(C)C)c(O)c(C(C)(C)C)c1 [Example 4, 2,6-bis(1,1-dimethylethyl)-4-[(1-methylethyl)thio]-phenol] | 1.3 |  |
| C[S+]([O-])c1cc(C(C)(C)C)c(O)c(C(C)(C)C)c1 (centres unmarked) [Example 6, 2,6-bis(1,1-dimethylethyl)-4-(methylsulfinyl)phenol] | 100 |  |
| CC(C)(C)c1cc(S(C)(=O)=O)cc(C(C)(C)C)c1O [Example 7, 2,6-bis(1,1-dimethylethyl)-4-(methylsulfonyl)phenol] |  | 5-Lipoxygenase Inhibition, in vitro, IC50 (5-lipoxygenase): Inactive |
| COc1c(C(C)(C)C)cc(SC)cc1C(C)(C)C [Example 8, 2,6-bis(1,1-dimethylethyl)-1-methoxy-4-(methylthio)benzene] | 100 |  |
| CCCCCSc1cc(C(C)(C)C)c(O)c(C(C)(C)C)c1 [Example 3, 2,6-bis(1,1-dimethylethyl)-4-(pentylthio)phenol] | 1.2 |  |
| CCCCC/C=C\C\C=C/C=C/C=C/[C@@H](SC[C@H](NC(=O)CC[C@H](N)C(=O)O)C(=O)NCC(=O)O)[C@@H](O)CCCC(=O)O [LTC4] |  | potency relative to histamine in causing long lasting bronchoconstricting effects [1]: at least 100 times |
| CSc1c(O)c(C(C)(C)C)cc(C(C)(C)C)c1O [Example 9, 4,6-bis(1,1-dimethylethyl)-2-(methylthio)-1,3-benzenediol] | 11 |  |
| CSc1cc(C(C)(C)C)c(O)c(C(C)(C)C)c1 [Example 5, 2,6-bis(1,1-dimethylethyl)-4-(methylthio)phenol] | 0.58 |  |
